Data as given in patent US11103520B2, “Analogs of N-acetlyglucosamine and uses thereof” (THE REGENTS OF THE UNIVERSITY OF CALIFORNIA, priority 2014, dated 2021).
“Also recorded” adds a separate entry of the source.

How the values were obtained:
N-glycan branching = conditions: in vitro; cited from earlier work
human T cells [1] = assay: CD25 and CD69 expression in human T cells stimulated with α-CD3; type: cell-based; conditions: FIG. 11
Excerpt: FIG. 12A is a graph that plots CD25 expression (%) in human T cells as a function of α-CD3 and GlcNAc/GlcNAc 6-acetate concentrations. FIG. 12B is a graph that plots CD69 expression (%) in human T cells as a function of α-CD3 and GlcNAc/GlcNAc 6-acetate concentrations.

[2] = tested on: C57/BL6 mice immunized with MOG35-55 peptide; assay: Oral treatment, N-glycan branching in mouse T cells in vivo; conditions: 1 mg/mL in drinking water, five days post immunization, CD4+ blasts
Method: Ten-week old female C57/BL6 were immunized with 100 μg of MOG35-55 peptide in a 1:1 mixture with CFA. Groups were non-immunized (n=2), immunized and given drinking water alone (n=3), immunized and given GlcNAc at 1 mg/mL in drinking water (n=3), or immunized and given G-6-A at 1 mg/mL in drinking water (n=3). Splenocytes were harvested five days post immunization, and labeled for FACS analysis. For GlcNAc and G-6-A treated groups, each mouse drank an average of 3 mL per day. Data shown is gated on a blasting region on CD4^+ cells.

human T cells [3] = assay: N-glycan branching (L-PHA) in human T cells; type: cell-based; conditions: PMA/Ionomycin stimulation, FIG. 9 and FIG. 10
Excerpt: Relative L-PHA (%) in human T cells is plotted as a function of PMA/Ionomycin stimulation and GlcNAc/GlcNAc-diacetate concentrations.
Relative L-PHA (%) in human T cells is plotted as a function of PMA/Ionomycin stimulation and GlcNAc/GlcNAc-monoacetate concentrations.

mouse T cells = assay: Mouse splenocyte cultures (L-PHA, CD69, CFSE proliferation); type: cell-based; conditions: splenocytes, anti-CD3 1 μg/mL; FIG. 15
Method: FIG. 15A is a graph illustrating splenocytes from C57/BL6 female (n=6, 8-24 weeks old) or male (n=5, 10-13 weeks old) mice after culturing in the presence of anti-CD3 (1 μg/mL). Cells were collected on day 3, and labeled for FACS analysis. FIG. 15B is a series of graphs illustrating in vitro cultures of splenocytes either un-stimulated (resting) or anti-CD3 (1 μg/mL) activated. G-6-A (20 mM) and or GlcNAc (40 mM). Cells were harvested over a three-day time course, and labeled for FACS analysis. FIG. 15C is a graph illustrating in vitro stimulated splenocytes (anti-CD3 at 1 μg/mL) that were cultured for three-days and labeled for FACS analysis of the T cell activation marker CD69 at the time points indicated. […] Splenocytes were labeled with 1 uM of CFSE prior to in vitro anti-CD3 (1 μg/mL) activation for three-days. Overlaying histograms is on gated CD4+ cells.
Cells were collected on day 3, and labeled for FACS analysis. Data shown is on gated CD4^+ cells, and percent changes of L-PHA MFI were normalized to a media only control.
G-6-A (20 mM) and or GlcNAc (40 mM). Cells were harvested over a three-day time course, and labeled for FACS analysis. Data shown is on gated CD4^+ cells, and percent changes of L-PHA MFI were normalized to a media only control.
Data shown is on gated CD4^+ cells. […]

[4] = cited from earlier work
C57BL/6 mice = assay: EAE in C57BL/6 mice, oral GlcNAc after disease onset; type: in vivo, mouse
Method: FIG. 7A is a graph that plots mean clinical EAE score as a function of days after disease onset for control and treated groups of mice. […] Error bars in FIGS. 7A and 7D represent the means±S.E. of duplicate or greater values unless otherwise stated.
The data plotted in FIG. 7A was obtained from experiments in which EAE was induced in C57BL/6 mice by immunization with MOG 35-55 peptide emulsified in Complete Freund's adjuvant and pertussis toxin. GlcNAc mice were treated orally with GlcNAc by supplementing the drinking water at 0.25 mg/ml starting on the second day after disease onset and continued for the duration of the study and control mice were given drinking water not supplemented with GlcNAc (n=9 per control group, n=7 per GlcNAc group). Day 1 indicates the first day of disease onset. Mice were examined daily for clinical signs of EAE over the next 30 days with the observer blinded to treatment conditions and scored daily as follows: 0, no disease; 1, loss of tail tone; 2, hindlimb weakness; 3, hindlimb paralysis; 4, forelimb weakness or paralysis and hindlimb paralysis; 5, moribund or dead. Mean clinical scores per group daily were compared by the Mann-Whitney U test. […] Error bars in FIGS. 7A and 7D represent the means±S.E. of duplicate or greater values unless otherwise stated.

[5] = tested on: pediatric treatment-resistant inflammatory bowel disease patients; conditions: oral GlcNAc; remission for approximately 2 years; cited from earlier work
animals = conditions: in vivo; cited from earlier work
myelin-reactive T cells = conditions: T cells treated in vitro, transferred into naïve mice; cited from earlier work
humans = conditions: supplement use for many years; cited from earlier work
non-obese diabetic mice = conditions: oral, initiated prior to disease onset; cited from earlier work
[6] = tested on: mice immunized with MOG 35-55 peptide; assay: Oral GlcNAc in mice immunized with MOG 35-55 peptide, splenocytes re-stimulated in culture; type: in vivo, mouse
Method: The data plotted in FIG. 6A was obtained from experiments in which splenocytes were isolated from mice and cultured in vitro with the indicated concentrations of GlcNAc under resting or activated (1000 ng/ml anti-CD3) conditions for 3 days, stained with L-PHA-FITC in triplicate, and analyzed by FACS. The data plotted in FIGS. 6B-6E were obtained from experiments in which mice were immunized with the indicated amounts of MOG 35-55 peptide emulsified in Complete Freund's adjuvant and treated with GlcNAc at the same time by supplementing their drinking water at 0.25 mg/ml GlcNAc and control mice that were immunized with the indicated amounts of MOG 35-55 peptide but not treated with GlcNAc. […] Although not wishing to be bound by any particular theory, the reduction in CD25^+T cell blasts at the highest antigen concentrations is consistent with the explanation that the reduction is secondary to the observed increase in cell death, consistent with antigen-induced cell death at high antigen stimulation levels.

2D2 TCR transgenic mice = assay: EAE in 2D2 TCR transgenic mice, oral GlcNAc after disease onset; type: in vivo, mouse; conditions: oral 0.25 mg/ml after onset
Excerpt: Day 1 indicates the first day of disease onset. […] Mean clinical scores per group daily were compared by the Mann-Whitney U test.

[7] = tested on: peripheral blood mononuclear cells; conditions: induced by MS-associated MGAT1 variant; cited from earlier work
[8] = oral, 0.25 mg/ml in drinking water, 14 days, vs control mice

## N[C@H]1C(O)O[C@H](CO)[C@@H](O)[C@@H]1O (stereo partly shown) [glucosamine]
N-glycan branching
  N-glycan branching with increasing concentration: initially increasing but subsequently decreasing N-glycan branching

## CC(=O)N[C@H]1C(O)O[C@H](COC(C)=O)[C@@H](O)[C@@H]1O (stereo partly shown) [N-acetylglucosamine 6-acetate]
Human T cells [1]
  CD25 expression (%): inhibits CD25 and CD69 expression to greater effect than GlcNAc
  CD69 expression (%): inhibits CD25 and CD69 expression to greater effect than GlcNAc
[2]
  N-glycan branching in mouse T cells in vivo: increases N-glycan branching in mouse T cells in vivo
Human T cells [3]
  N-glycan branching (Relative L-PHA (%)): increases N-glycan branching to greater effect than GlcNAc or N-acetylglucosamine 3-acetate
Mouse T cells
  effectiveness in mouse T cells: more effective than GlcNAc in mouse T cells

## CC(=O)N[C@H]1C(OC(C)=O)O[C@H](COC(C)=O)[C@@H](OC(C)=O)[C@@H]1OC(C)=O (stereo partly shown) [GlcNAc-tetraacetate, N-acetylglucosamine tetraacetate]
[4]
  membrane permeability: increased membrane permeability as compared with GlcNAc

## CC(=O)N[C@@H](C=O)[C@@H](O)[C@H](O)[C@H](O)CO [GlcNAc, 2-(acetylamino)-2-deoxy-D-glucose]
C57BL/6 mice; C57BL/6 mice, oral 0.25 mg/ml in drinking water from second day after onset
  clinical course of EAE (mean clinical score): attenuates the clinical course of experimental autoimmune encephalomyelitis (EAE)
C57BL/6 mice; re-stimulation with MOG 35-55 peptide in vitro
  production of pro-inflammatory cytokines IFN-γ, TNF-α, IL-17, IL-22: inhibited production of pro-inflammatory cytokines IFN-γ, TNF-α, IL-17, and IL-22
C57BL/6 mice; representative mice at peak of disease
  N-glycan branching in T cells (L-PHA staining): increased N-glycan branching in T cells
C57BL/6 mice; representative mice at peak of disease, vs control mice
  CD25+ T cells: significant reduction in CD25^+T cells
Human T cells [1]
  CD25 expression (%): N-acetylglucosamine 6-acetate inhibits CD25 and CD69 expression to greater effect than GlcNAc
  CD69 expression (%): N-acetylglucosamine 6-acetate inhibits CD25 and CD69 expression to greater effect than GlcNAc
[5]
  children in clinical remission: 8 of 12
animals
  toxicity in chronic animal studies: no associated toxicity
myelin-reactive T cells
  EAE after adoptive transfer of treated T cells: inhibited EAE when these cells were adoptively transferred into naïve mice
[4]
  membrane permeability: low membrane permeability (poor cell entry)
humans
  adverse effects in humans: without reported adverse effects
non-obese diabetic mice
  spontaneous autoimmune diabetes: suppress spontaneous autoimmune diabetes
N-glycan branching
  N-glycan branching with increasing concentration: only enhance N-glycan branching
[6]; oral treatment in vivo, re-stimulation with MOG 35-55 in vitro
  secretion of Th1 (IFN-γ, TNF-α) and Th17 (IL-17, IL-22) cytokines: inhibited secretion of Th1 cytokines (IFN-γ and TNF-α) and Th17 cytokines (IL-17 and IL-22)
[6]; [8]
  CD4+CD25+FoxP3+ regulatory T cells: promoted development of CD4^+CD25^+FoxP3^+ regulatory T cells
  CD25+ T cells upon re-stimulation with MOG 35-55 peptide: reduced CD25^+T cells
2D2 TCR transgenic mice; 2D2 TCR transgenic mice scored ≤4
  clinical course of EAE, moderate-severe disease: attenuates the clinical course of EAE in moderate-severe disease
2D2 TCR transgenic mice; 2D2 TCR transgenic mice with scores of 5
  clinical course of EAE, lethal disease: not disease with rapid lethal progression
Human T cells [3]
  N-glycan branching (Relative L-PHA (%)): increases N-glycan branching to greater effect than N-acetylglucosamine-diacetate compounds; also recorded: N-acetylglucosamine 6-acetate increases N-glycan branching to greater effect than GlcNAc
[7]
  N-glycan branching deficiency and T cell hyper-proliferation: rescued N-glycan branching deficiency and T cell hyper-proliferation

## CC(=O)N[C@H]1C(O)O[C@H](COC(C)=O)[C@@H](O)[C@@H]1OC(C)=O (stereo partly shown) [N-acetylglucosamine 3,6 diacetate]
Human T cells [3]
  N-glycan branching (Relative L-PHA (%)): GlcNAc increases N-glycan branching to greater effect than N-acetylglucosamine-diacetate compounds

## CC(=O)N[C@H]1C(O)O[C@H](COC(C)=O)[C@@H](OC(C)=O)[C@@H]1O (stereo partly shown) [N-acetylglucosamine 4,6 diacetate]
Human T cells [3]
  N-glycan branching (Relative L-PHA (%)): GlcNAc increases N-glycan branching to greater effect than N-acetylglucosamine-diacetate compounds

## CC(=O)N[C@H]1C(O)O[C@H](CO)[C@@H](OC(C)=O)[C@@H]1OC(C)=O (stereo partly shown) [N-acetylglucosamine 3,4 diacetate]
Human T cells [3]
  N-glycan branching (Relative L-PHA (%)): GlcNAc increases N-glycan branching to greater effect than N-acetylglucosamine-diacetate compounds

## CC(=O)N[C@H]1C(O)O[C@H](CO)[C@@H](O)[C@@H]1OC(C)=O (stereo partly shown) [N-acetylglucosamine 3-acetate]
Human T cells [3]
  N-glycan branching (Relative L-PHA (%)): N-acetylglucosamine 6-acetate increases N-glycan branching to greater effect than GlcNAc or N-acetylglucosamine 3-acetate
